Assay results: ChEMBL document CHEMBL1201862, “PubChem BioAssay data set” (2004)
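A five-concentration, 48-hour dose response in 96-well plates underlies each endpoint, interpolated linearly between surrounding concentrations. GI50 = concentration required for 50% inhibition of growth.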 The source made the active and inactive calls. Rule as the data show it: active = GI50 up to about 1.1 µM and inactive = higher.

Experiments:
Assay in all cases: NCI tumour cell line growth inhibition, 48 h
786-0 = system: 786-0
A498 = system: A498
A549 = system: A549
ACHN = system: ACHN
BT-549 = system: BT-549
CAKI-1 = system: CAKI-1
CCRF-CEM = system: CCRF-CEM
COLO 205 = system: COLO 205
DU-145 = system: DU-145
EKVX = system: EKVX
HCC 2998 = system: HCC 2998
HCT-116 = system: HCT-116
HCT-15 = system: HCT-15
HOP-62 = system: HOP-62
HOP-92 = system: HOP-92
HT-29 = system: HT-29
Hs-578T = system: Hs-578T
IGROV-1 = system: IGROV-1
K562 = system: K562
KM12 = system: KM12
LOX IMVI = system: LOX IMVI
M14 = system: M14
MCF7 = system: MCF7
MDA-MB-231 = system: MDA-MB-231
MDA-MB-435 = system: MDA-MB-435
MDA-N = system: MDA-N
MOLT-4 = system: MOLT-4
Malme-3M = system: Malme-3M
NCI-H226 = system: NCI-H226
NCI-H23 = system: NCI-H23
NCI-H460 = system: NCI-H460
NCI-H522 = system: NCI-H522
NCI/ADR-RES = system: NCI/ADR-RES
OVCAR-3 = system: OVCAR-3
OVCAR-4 = system: OVCAR-4
OVCAR-5 = system: OVCAR-5
OVCAR-8 = system: OVCAR-8
PC-3 = system: PC-3
RPMI-8226 = system: RPMI-8226
RXF 393 = system: RXF 393
SF-268 = system: SF-268
SF-295 = system: SF-295
SF-539 = system: SF-539
SK-MEL-28 = system: SK-MEL-28
SK-MEL-2 = system: SK-MEL-2
SK-MEL-5 = system: SK-MEL-5
SK-OV-3 = system: SK-OV-3
SN12C = system: SN12C
SNB-19 = system: SNB-19
SNB-75 = system: SNB-75
SR = system: SR
SW-620 = system: SW-620
T47D = system: T47D
TK-10 = system: TK-10
U-251 = system: U-251
UACC-257 = system: UACC-257
UACC-62 = system: UACC-62
UO-31 = system: UO-31
HL-60 = system: HL-60

O=C1CSC2(CC(/C=C/c3cccc(Br)c3)=NN2c2cccc(S(=O)(=O)O)c2)N1c1nc2ccccc2s1 (stereo unspecified)
GI50 (786-0): > 100 µM (inactive) | GI50 (A498): > 100 µM (inactive) | GI50 (A549): > 100 µM (inactive) | GI50 (ACHN): > 100 µM (inactive) | GI50 (BT-549): > 100 µM (inactive) | GI50 (CAKI-1): > 100 µM (inactive) | GI50 (CCRF-CEM): 20 µM (inactive) | GI50 (COLO 205): > 100 µM (inactive) | GI50 (DU-145): > 100 µM (inactive) | GI50 (EKVX): > 100 µM (inactive) | GI50 (HCC 2998): > 100 µM (inactive) | GI50 (HCT-116): > 100 µM (inactive) | GI50 (HCT-15): > 100 µM | GI50 (HOP-62): > 100 µM (inactive) | GI50 (HOP-92): > 49.7 µM (inactive) | GI50 (HT-29): > 100 µM (inactive) | GI50 (Hs-578T): > 100 µM (inactive) | GI50 (IGROV-1): 58.6 µM (inactive) | GI50 (K562): 42.8 µM (inactive) | GI50 (KM12): > 90.8 µM (inactive) | GI50 (LOX IMVI): > 82.6 µM (inactive) | GI50 (M14): > 100 µM (inactive) | GI50 (MCF7): 65.6 µM (inactive) | GI50 (MDA-MB-231): > 100 µM (inactive) | GI50 (MDA-MB-435): 62.4 µM (inactive) | GI50 (MDA-N): > 100 µM (inactive) | GI50 (MOLT-4): > 100 µM (inactive) | GI50 (Malme-3M): > 100 µM (inactive) | GI50 (NCI-H226): > 100 µM (inactive) | GI50 (NCI-H23): > 100 µM (inactive) | GI50 (NCI-H460): > 100 µM (inactive) | GI50 (NCI-H522): 58.5 µM (inactive) | GI50 (NCI/ADR-RES): > 100 µM (inactive) | GI50 (OVCAR-3): > 100 µM (inactive) | GI50 (OVCAR-4): > 77.8 µM (inactive) | GI50 (OVCAR-5): > 100 µM (inactive) | GI50 (OVCAR-8): > 79.8 µM (inactive) | GI50 (PC-3): > 100 µM (inactive) | GI50 (RPMI-8226): 25.5 µM (inactive) | GI50 (RXF 393): > 100 µM (inactive) | GI50 (SF-268): > 100 µM (inactive) | GI50 (SF-295): > 100 µM (inactive) | GI50 (SF-539): > 100 µM (inactive) | GI50 (SK-MEL-28): > 100 µM (inactive) | GI50 (SK-MEL-2): > 100 µM (inactive) | GI50 (SK-MEL-5): > 100 µM (inactive) | GI50 (SK-OV-3): > 100 µM (inactive) | GI50 (SN12C): > 100 µM (inactive) | GI50 (SNB-19): > 100 µM (inactive) | GI50 (SNB-75): > 100 µM (inactive) | GI50 (SR): 41.5 µM (inactive) | GI50 (SW-620): > 100 µM (inactive) | GI50 (T47D): 38.5 µM (inactive) | GI50 (TK-10): > 100 µM (inactive) | GI50 (U-251): > 100 µM (inactive) | GI50 (UACC-257): > 100 µM (inactive) | GI50 (UACC-62): 80.2 µM (inactive) | GI50 (UO-31): > 96.6 µM (inactive)

CC(CO)(CO)/N=C/c1cc(I)cc(I)c1O
GI50 (786-0): 13.6 µM (inactive) | GI50 (A498): 26.5 µM (inactive) | GI50 (A549): 54.8 µM (inactive) | GI50 (ACHN): 25 µM (inactive) | GI50 (BT-549): 14 µM (inactive) | GI50 (CAKI-1): 22.2 µM (inactive) | GI50 (CCRF-CEM): 9.98 µM (inactive) | GI50 (COLO 205): 17.8 µM (inactive) | GI50 (DU-145): 11.6 µM (inactive) | GI50 (EKVX): 19.5 µM (inactive) | GI50 (HCT-116): 14.8 µM (inactive) | GI50 (HCT-15): 9.33 µM | GI50 (HL-60): 11.2 µM (inactive) | GI50 (HOP-62): 11.2 µM (inactive) | GI50 (HOP-92): 14 µM (inactive) | GI50 (HT-29): 21.4 µM (inactive) | GI50 (Hs-578T): 23.6 µM (inactive) | GI50 (IGROV-1): 9.4 µM (inactive) | GI50 (K562): 27.1 µM (inactive) | GI50 (KM12): 14.5 µM (inactive) | GI50 (LOX IMVI): 10.3 µM (inactive) | GI50 (M14): 14.1 µM (inactive) | GI50 (MCF7): 19.5 µM (inactive) | GI50 (MDA-MB-231): 18.7 µM (inactive) | GI50 (MDA-MB-435): 13.5 µM (inactive) | GI50 (MDA-N): 19.7 µM (inactive) | GI50 (MOLT-4): 11.5 µM (inactive) | GI50 (Malme-3M): 13.1 µM (inactive) | GI50 (NCI-H226): 16.4 µM (inactive) | GI50 (NCI-H23): 21.8 µM (inactive) | GI50 (NCI-H460): 22.2 µM (inactive) | GI50 (NCI-H522): 19.1 µM (inactive) | GI50 (NCI/ADR-RES): 14.2 µM (inactive) | GI50 (OVCAR-3): 9.79 µM (inactive) | GI50 (OVCAR-4): 8.65 µM (inactive) | GI50 (OVCAR-5): 22.3 µM (inactive) | GI50 (OVCAR-8): 15.5 µM (inactive) | GI50 (PC-3): 14.2 µM (inactive) | GI50 (RPMI-8226): 21.3 µM (inactive) | GI50 (RXF 393): 10.9 µM (inactive) | GI50 (SF-268): 5.62 µM (inactive) | GI50 (SF-295): 15.8 µM (inactive) | GI50 (SF-539): 14.5 µM (inactive) | GI50 (SK-MEL-28): 16.6 µM (inactive) | GI50 (SK-MEL-2): 12.2 µM (inactive) | GI50 (SK-MEL-5): 13.8 µM (inactive) | GI50 (SK-OV-3): 13.6 µM (inactive) | GI50 (SN12C): 13.3 µM (inactive) | GI50 (SNB-19): 20.3 µM (inactive) | GI50 (SNB-75): 12.9 µM (inactive) | GI50 (SR): 8.53 µM (inactive) | GI50 (SW-620): 22 µM (inactive) | GI50 (T47D): 23.1 µM (inactive) | GI50 (TK-10): 26 µM (inactive) | GI50 (U-251): 12.8 µM (inactive) | GI50 (UACC-257): 20.9 µM (inactive) | GI50 (UACC-62): 16 µM (inactive) | GI50 (UO-31): 12 µM (inactive)
